Reference: the NIST ThermoML archive (doi:10.1021/je9007662)

Assay: mean ionic activity coefficient (dimensionless); mn = molality of the nth substance listed, in mol/kg
Settings: 298.15 K, 101 kPa, Liquid

[Br-].[Cs+] [cesium bromide] + O
Settings	mean ionic activity coefficient
m1 = 0.1	0.75
m1 = 0.2	0.689
m1 = 0.3	0.652
m1 = 0.4	0.625
m1 = 0.5	0.604
m1 = 0.6	0.587
m1 = 0.7	0.573
m1 = 0.8	0.561
m1 = 0.9	0.551
m1 = 1	0.542
m1 = 1.2	0.526
m1 = 1.4	0.514
m1 = 1.6	0.504
m1 = 1.8	0.495
m1 = 2	0.488
m1 = 2.5	0.475
m1 = 3	0.466
m1 = 3.5	0.461
m1 = 4	0.46
m1 = 4.5	0.46
m1 = 5	0.463
